Experimental data from US20150216975A1, “NANOVECTOR BASED DRUG DELIVERY SYSTEM FOR OVERCOMING DRUG RESISTANCE” (WILLIAM MARSH RICE UNIVERSITY, priority 2012, published 2015).

How the values were obtained:
[1] = test system: HER2-neu+ cervical cancer cells; assay: Total cell protein of cervical cancer cells after antibody-guided PEG-HCC drugs and pump inhibitors (FIG. 4A); assay type: cell-based, human; conditions: 24 hours
Experimental: (§1) Applicants also investigated whether the potentiation of Vin and Doc toxicity (by Halo and Indo) was applicable to other cancer types. Applicants obtained human breast and cervical cancer cells from the ATCC and grew them in 96 well format.
(§2) In a pair of 96-well plates, confluent cancer cells were treated with 1 μM (Indo or Halo)/PEG-HCC and/or 1 μM (Doc or Vin)/PEG-HCC. The inhibitors were guided to the cell surface using anti-HER2 antibodies. The chemotherapeutics were guided using EGFR antibodies. After incubation for 24 hours, one plate was used to measure total cell protein, and the other was used in dye labeling studies (as described above). This was done for both HER2-neu+ breast and HER2-neu+ cervical cancer cells (where HER2-neu is human epidermal growth factor receptor-2).
100 nM Doc delivered using EGFR IgG yielded 78% of the control, whereas 100 nM Vin yielded 87% of the control. Halo increased the toxicity of Doc, lowering the total protein to 25% of the control. […] Indo increased the toxicity of Doc slightly (from 78% to 68%) and Vin greatly (from 87% to 36%). In the panels of FIG. 4C, the dye retention of these cervical cancer cells is shown under the same conditions. All four compounds cause a significant brightening of the cells.

[2] = test system: human breast cancer cells; assay: Toxicity of Doc/Vin and Halo/Indo delivered as peptidyl-PEG-HCC in breast cancer cells (FIG. 12); assay type: cell-based; conditions: 50 nM drug; for potentiation of toxicity by Indo: 1 μM Indo as peptidyl-PEG-HCC
Experimental: (§3) In all cases, living cell numbers were calculated at n=6 individual wells and assayed using Hoe. Cells were incubated for 24 hours with Doc or Vin and targeted to the cell surface with peptidyl-PEG-HCC. The targeting peptidyl sequence was DFKLFAVTIKYR, which targets Intigrins αvβ3 and α5β. FIGS. 12B-12C provide data illustrating that drug pump inhibitors Halo and Indo potentiate the effects of Vin and Doc on GBM and breast cancer cells. Cells were incubated with PEG-HCC (control), 50 nM Doc or Vin, or Doc and Vin as peptidyl-PEG-HCC (using DFKLFAVTIKYR targeting Intigrins αvβ3 and α5β). Additionally, these four incubants were treated with PEG-HCC (control), 1 μM Halo or Indo, or Halo and Indo as peptidyl-PEG-HCC (using YRWYGYTPQNVI targeting EGFR).

GBM cells (BT111 cells) = assay: Toxicity of Doc/Vin and Halo/Indo delivered as peptidyl-PEG-HCC in GBM cells, living cell numbers (FIG. 12); assay type: cell-based, human; conditions: gliomal cells, 24 hours, 50 nM drug; for toxicity in the presence of both pump inhibitors (Halo and Indo): 1 μM Halo and Indo as peptidyl-PEG-HCC; for toxicity on co-incubation with Halo: 1 μM Halo as peptidyl-PEG-HCC (YRWYGYTPQNVI)
Experimental: as §3

[3] = test system: xenobiotic pumps in human primary GBM cells; assay: Retention of xenobiotic pump dye substrates (Rh123, BCECF, Hoe) in GBM cells (FIG. 1, 2A, 2F); assay type: cell-based; conditions: for dye retention, chemotherapeutic drug alone / dye accumulation in drug and inhibitor combinations / dye retention, pump inhibitor loaded on PEG-HCC targeted by IL-13R IgGs: GBM cells; for dye retention, chemotherapeutic drug alone / dye accumulation in drug and inhibitor combinations: 24 hours; for dye retention, chemotherapeutic drug alone: 100 nM as GFAPAB/Drug/PEG-HCC; for dye accumulation in drug and inhibitor combinations: 100 nM drug and 2 μM inhibitor on targeted PEG-HCC (FIG. 2A); for retention of dyes (Rh123, BCECF, Hoe): human GBM cells, ninety minutes, 20 μM Fumitremorgin C, 200 μM Indomethacin; for dye retention, pump inhibitor loaded on PEG-HCC targeted by IL-13R IgGs: Il-13RAB/Inhibitor/PEG-HCC (FIG. 2A, 2F)
Description: Applicants investigated the ability of human primary glioma cells to retain dyes in the absence and presence of known drug pump inhibitors. […] After ninety minutes, the cells were fixed using ice-cold 2% paraformaldehyde. The fixed cells were stored overnight in a refrigerator. The cells were then washed three times in phosphate buffered saline at pH 7.4 (PBS) and imaged in a fluorescence microscope.
In this experiment, PEG-HCCs were loaded with Halo, Sulfinpyrazone (Sulf) or Indo. The same methodologies outlined above were used. The constructs were then targeted to GBM cells by IL-13R IgGs.
(§4) The drugs (Vin and Doc) were delivered to a final concentration of 100 nM in the form of GFAPAB/Drug/PEG-HCC. In some experiments, pump inhibitors Haloperidol (Halo) and Indomethacin (Indo) were added at a final concentration of 2 μM in the form of Il-13RAB/Inhibitor/PEG-HCC. Controls consisting of unloaded PEG-HCC, drug/inhibitor loaded PEG-HCC, GFAPAB, or saline were also used. Cells were treated for 24 hours with GFAPAB/Drug/PEG-HCC and/or Il-13RAB/Halo/PEG-HCC. Next, the cells were incubated for 1 hour with Rh123, BCECF-AM and Hoe, as previously described. Cells were then imaged at ×30 magnification using filters for Rh123, BCECF and Hoe.

GBM cells = assay: Potentiation of Vin or Doc toxicity in GBM cells by targeted vs untargeted Halo or Indo via IgG/PEG-HCC delivery, cell numbers (FIG. 3); assay type: cell-based, human; conditions: for increase of toxicity by pump inhibition by Halo (targeted vs untargeted, untargeted averaged to 100%) / increase of toxicity by pump inhibition by Indo (targeted vs untargeted, untargeted averaged to 100%): FIG. 3B; for cell number (% of control): 24 hours
Experimental: To confirm the potentiation effect of chemotherapeutic agents and pump inhibitors, Applicants performed a similar experiment to that shown in FIG. 2. In these experiments, Applicants examined the effects of both inhibitors on both chemotherapeutics. Applicants also inverted the targeting antibodies by utilizing GFAPAB/(Indo or Halo)/PEG-HCC and Il-13RAB/(Doc or Vin)/PEG-HCC. 2 μM Halo/PEG-HCC and Indo/PEG-HCC without antibody targeting were used as controls, which were added with and without 100 nM Vin or Doc as Il-13RAB/Drug/PEG-HCC.
200 nM Il-13RAB/Doc/PEG-HCC caused a drop in cell number to 75% and to 72% (the level seen in the controls) in the presence of (untargeted) Halo/PEG-HCC and Indo/PEG-HCC, respectively. However, targeting of Halo caused a large change in Doc toxicity. The inclusion of an antibody with Halo/PEG-HCC changed the toxicity from 75% to 37%. The inclusion of an antibody with Indo/PEG-HCC changed the Doc toxicity from 72% to 50%.
Vin toxicity was also potentiated in the presence of targeted xenobiotic pump inhibitors. Furthermore, the targeting of Halo dropped the cell numbers from 45% (control number, untargeted) to 27% (targeted). […] However, when Indo was targeted to the GBM cells, this dropped to only 14%. […] Only the potentiating effect is shown, comparing targeted and untargeted xenobiotic pump inhibitors, so that the cell numbers in the presence of untargeted pump inhibitor are averaged to 100%.

[4] = test system: HER2-neu+ breast cancer cells; assay: Total cell protein of breast cancer cells after antibody-guided PEG-HCC drugs and pump inhibitors (FIG. 4B); assay type: cell-based, human; conditions: 24 hours
Experimental: as §1, §2
100 nM Doc delivered using EGFR IgG yielded 51% of the control, whereas 100 nM Vin yielded 65% of the control. Halo increased the toxicity of Doc, thereby lowering the total protein to 30% of the control. […] In the panels of FIG. 4D, the dye retention of these breast cancer cells is shown under the same conditions. All four compounds cause a significant brightening of the cells. The inhibitor and chemotherapeutic combination panels also indicate that dye retention is potentiated in all four combinations/permutations.

[5] = test system: glioblastoma cells grown in culture; assay: Living and dead GBM cell counts after Drug/PEG-HCC with or without Halo (FIG. 2B-2E); assay type: cell-based, human; conditions: for dead cell numbers when Halo is used in conjunction: 24 hours, drug/PEG-HCC with Halo (FIG. 2C)
Experimental: as §4
Furthermore, it is shown in FIG. 2C that the dead cell numbers are elevated when Halo is used in conjunction with both Vin and Doc.
FIGS. 2D-2E show additional data relating to Halo-mediated potentiation of Vin, Doc and SN38 toxicity in HADES compositions.

[6] = 100 nM drug delivered using EGFR IgG, no pump inhibitor
[7] = drug via EGFR IgG plus Halo/PEG-HCC guided by anti-HER2
[8] = drug via EGFR IgG plus Indo/PEG-HCC guided by anti-HER2

SMILES	total cell protein (% of the control) [1, 6] [%]	total cell protein (% of the control) [1, 8] [%]	potentiation of toxicity by Indo [2]	toxicity in the presence of both pump inhibitors (Halo and Indo) (GBM cells (BT111 cells))	toxicity on co-incubation with Halo (GBM cells (BT111 cells))	dye retention, chemotherapeutic drug alone [3]	dye accumulation in drug and inhibitor combinations [3]	increase of toxicity by pump inhibition by Halo (targeted vs untargeted, untargeted averaged to 100%) (GBM cells)	increase of toxicity by pump inhibition by Indo (targeted vs untargeted, untargeted averaged to 100%) (GBM cells) [%]	total cell protein (% of the control) [4, 6] [%]	total cell protein (% of the control) [4, 8] [%]	dead cell numbers when Halo is used in conjunction [5]	retention of dyes (Rh123, BCECF, Hoe) [3]	dye retention, pump inhibitor loaded on PEG-HCC targeted by IL-13R IgGs [3]	also measured
CC(=O)O[C@@]12CO[C@@H]1C[C@H](O)[C@@]1(C)C(=O)[C@H](O)C3=C(C)[C@@H](OC(=O)[C@H](O)[C@@H](NC(=O)OC(C)(C)C)c4ccccc4)C[C@@](O)([C@@H](OC(=O)c4ccccc4)[C@H]21)C3(C)C [Doc, docetaxel]	78	68	potentiated	greater level of toxicity than Halo or Indo alone	more enhanced by co-incubation with Halo	differentially increase dye retention	synergistic effect in dye accumulation	approximately 50%	40	51	68	elevated			total cell protein (% of the control) [1, 7]: 25%; toxicity with both pump inhibitors (Halo and Indo) ([2]; 1 μM Halo and Indo as peptidyl-PEG-HCC): greatly by both on combination; potentiation of toxicity by Halo ([2]; 1 μM Halo as peptidyl-PEG-HCC): potentiated; total cell protein (% of the control) [4, 7]: 30%
COc1ccc2c3c([nH]c2c1)[C@H](C=C(C)C)N1C(=O)[C@@H]2CCCN2C(=O)[C@@H]1C3 [Fumitremorgin C]													increase dye retention of all dyes		
O=C(CCCN1CCC(O)(c2ccc(Cl)cc2)CC1)c1ccc(F)cc1 [Halo, Haloperidol]														same experimental results were obtained	
COc1ccc2c(c1)c(CC(=O)O)c(C)n2C(=O)c1ccc(Cl)cc1 [Indo, Indomethacin]													increase dye retention of all dyes	same experimental results were obtained	
CCc1c2c(nc3ccc(O)cc13)-c1cc3c(c(=O)n1C2)COC(=O)[C@]3(O)CC [SN-38]															effect of Halo on toxicity in HADES compositions ([5]; FIGS. 2D-2E): minimally affected
CC[C@]1(O)C[C@@H]2CN(CCc3c([nH]c4ccccc34)[C@@](C(=O)OC)(c3cc4c(cc3OC)N(C)[C@H]3[C@@](O)(C(=O)OC)[C@H](OC(C)=O)[C@]5(CC)C=CCN6CC[C@]43[C@@H]65)C2)C1 [Vin, vinblastine]	87	36	potentiated	did not lead to a greater level of toxicity than Indo alone	moderately enhanced	differentially increase dye retention	synergistic effect in dye accumulation	approximately 50%	70	65	33	elevated			effect of Halo on toxicity (in words) [1]: slight effect; toxicity in the presence of Indo (GBM cells (BT111 cells); 1 μM Indo as peptidyl-PEG-HCC (YRWYGYTPQNVI)): more than doubled; cell number (% of control) (GBM cells; drug as Il-13RAB/Drug/PEG-HCC with antibody-targeted Halo/PEG-HCC (GFAPAB)): 27%; cell number (% of control) (GBM cells; drug as Il-13RAB/Drug/PEG-HCC with antibody-targeted Indo/PEG-HCC (GFAPAB)): 14%; effect of Halo on toxicity (in words) [4]: no potentiating effect
